Laboratory results taken from patent publication US7772179B2, “Photodynamic therapy using chemiluminescence and a ligand-photosensitiser conjugate” (priority 2005, dated 2010).

Experiments:
FL cells [1] = assay: LTC cytotoxicity assay (PDT with ambient fluorescent light), trypan blue exclusion; type: cell-based
Protocol: (§1) (C); 0.5-1×10^5 cells/ml were cultured for 2 hr in the dark in medium alone or containing Hp or Tf-Hp (0-3 μM), washed, exposed to ambient fluorescent light for 16 hrs at room temperature and then re-cultured in full medium for 24 hrs. Cell viability was assessed by trypan blue exclusion. The data represent the mean and standard deviation from at least 3 experiments;
(§2) Late log-phase cells were washed with DMEM pre-warmed to 37° C. and cultured at 0.5-1×10^5 cells/ml either alone or with increasing concentrations of Tf-Hp LTC for 2 hrs at 37° C. in 6% CO2. Cells were then washed with DMEM, exposed to ambient fluorescent light (fluence rate=0.5 mW/cm^2) for 12-16 hours and then re-cultured in full medium for 24 hrs. […] Experiments were repeated at least three times.

K562 cells = assay: as above; type: cell-based, Human; details: K-562 cells, external ambient fluorescent light
Protocol: as §1, §2

FL cells [2] = details: in the dark

Compound: CC1=C(CCC(=O)O)c2cc3[nH]c(cc4nc(cc5[nH]c(cc1n2)c(C)c5C(C)O)C(C)=C4C(C)O)c(C)c3CCC(=O)O (stereo not drawn) [Hp, hematoporphyrin]
- maximum cytotoxicity (LDMAX) (FL cells [1]; FL cells, external ambient fluorescent light): 90%
- sensitivity of FL cells relative to K-562 at LDMAX (FL cells [1]; free Hp treatment, FL versus K-562): 16.6
- maximum activity (cytotoxicity) (FL cells [1]; optimization of the LTC cytotoxicity assay, about 2 hr exposure, cell line not stated): 24%
- maximum cytotoxicity (LDMAX) (K562 cells): 90%
- maximum cytotoxicity together with luminol (FL cells [2]; together with 10 μM luminol, no external light): 30%

Compound: Nc1cccc2c(=O)[nH][nH]c(=O)c12 [luminol, 5-amino-2-3-dihydro-1,4-phtalazinedione]
- cytotoxicity, luminol alone (FL cells [2]; 10 μM luminol, no Ps): about 15%
